Assay results published in US12371454B2, “Cyclic peptide compound having Kras inhibitory action” (priority 2019, dated 2025).
Starred links: 1 amine or outer side, 2 acyl side, 3 side chain; linkers in the order of their positions; H or OH if unused. Positions of bridges follow the written chain, without caps; N, C: chain ends. Non-standard residues stand in square brackets, D forms with d. Residues, ends and D or L forms follow the SMILES beside them. *: point of attachment. hPhe(3-Cl-4-CF3) = N[C@@H](CCc1ccc(C(F)(F)F)c(Cl)c1)C(=O)O; hPhe(3-F,4-CF3) = N[C@@H](CCc1ccc(C(F)(F)F)c(F)c1)C(=O)O; hPhe(4-CF3) = N[C@@H](CCc1ccc(C(F)(F)F)cc1)C(=O)O; NEtPhe(4-Me) = CCN[C@@H](Cc1ccc(C)cc1)C(=O)O; NMePhe(4-Cl) = CN[C@@H](Cc1ccc(Cl)cc1)C(=O)O; NMePhe(4-F) = CN[C@@H](Cc1ccc(F)cc1)C(=O)O; NMedβ3hAla = C[C@H](CC(=O)[*:2])N(C)[*:1]; Oic = O=C(O)[C@@H]1C[C@@H]2CCCC[C@@H]2N1; NMeGly(cPent) = CN[C@H](C(=O)O)C1CCCC1; NMeCha = CN[C@@H](CC1CCCCC1)C(=O)O; Hyp = O=C(O)[C@@H]1C[C@@H](O)CN1; NMeChg = CN[C@H](C(=O)O)C1CCCCC1; NMeF = CN[C@@H](Cc1ccccc1)C(=O)O; Gly(cPr) = N[C@H](C(=O)O)C1CC1; NMeD = CN[C@@H](CC(=O)O)C(=O)O; NMeL = CN[C@@H](CC(C)C)C(=O)O; NMeV = CN[C@H](C(=O)O)C(C)C; d(β3hA) = C[C@@H](N)CC(=O)O; Azetidin(1-yl) = C1CN(*)C1; NMeS = CN[C@@H](CO)C(=O)O; NMeA = CN[C@@H](C)C(=O)O; Piperidide = C1CCN(*)CC1; Pyrrolidide = C1CCN(*)C1; dNMeA = CN[C@H](C)C(=O)O; Ac5c = NC1(C(=O)O)CCCC1; Aze = O=C(O)[C@@H]1CCN1; Aib = CC(C)(N)C(=O)O; X47 = Fc1cncc(C*)c1; βAla = NCCC(=O)O; Sar = CNCC(=O)O

The compounds below were run against T1, Kras and SOS1 (biotin-tagged human Kras loaded with GDP, His-tagged human SOS1) (Homo sapiens, UniProt P01116, G12D) (assay: Protein-protein interaction inhibition between Kras and SOS1 (KrasGl2D-SOS PPI) using AlphaScreen). Details: AlphaScreen; biotin-tagged human Kras loaded with GDP, His-tagged human SOS1; read-out: KRAS G12D-SOS PPI IC50.
T1 construct: made in house; host or cells: E. coli (stated for Kras only)
Format: binding
How it was run: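 Donor beads (nickel) hold His-SOS1; acceptor beads (streptavidin) hold biotin-Kras bound to GDP. Signal measured at 520-620 nm following 680 nm excitation.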

T1 sequence (P01116 1-188 isoform P01116-2 G12D): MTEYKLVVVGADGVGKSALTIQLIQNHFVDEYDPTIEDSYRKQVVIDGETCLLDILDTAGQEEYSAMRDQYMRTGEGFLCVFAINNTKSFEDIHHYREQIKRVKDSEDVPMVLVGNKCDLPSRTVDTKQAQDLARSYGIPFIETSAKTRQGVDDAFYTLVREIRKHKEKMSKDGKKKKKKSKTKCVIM

Structure (SMILES)	IC50 [nM]
CC[C@H](C)[C@@H]1NC(=O)[C@H](CC(C)C)N(C)C(=O)C[C@@H](C(=O)N2CCC2)N(C)C(=O)[C@H](C2CCCC2)N(C)C(=O)C2(CCCC2)NC(=O)[C@@H]2CCCN2C(=O)[C@H](CCc2ccc(C(F)(F)F)c(Cl)c2)NC(=O)CN(C)C(=O)[C@H](CC2CCCCC2)N(C)C(=O)[C@@H]2CCN2C(=O)[C@H](C)N(C)C1=O [Compound 515] ([NMeL]I[NMeA][Aze][NMeCha][Sar][hPhe(3-Cl-4-CF3)]P[Ac5c][NMeGly(cPent)][NMeD]-{Azetidin(1-yl)}; lactam N-11)	0.55
CC[C@H](C)[C@@H]1NC(=O)[C@H](C)N(C)C(=O)C[C@@H](C)NC(=O)[C@H](C(C)C)N(C)C(=O)C2(CCCC2)NC(=O)[C@@H]2CCCN2C(=O)[C@H](CCc2ccc(C(F)(F)F)c(Cl)c2)NC(=O)[C@@H](C)N(C)C(=O)[C@H](CC2CCCCC2)N(C)C(=O)[C@@H]2CCCN2C(=O)CN(C)C1=O [Compound 516] (cyclo([Ac5c][NMeV][d(β3hA)][NMeA]I[Sar]P[NMeCha][dNMeA][hPhe(3-Cl-4-CF3)]P))	62
CC[C@H](C)[C@@H]1NC(=O)[C@H](C)N(C)C(=O)C[C@@H](C(=O)N2CCCC2)NC(=O)[C@H](CC(C)C)N(C)C(=O)[C@H](COCc2cncc(F)c2)N(C)C(=O)[C@H](CC(C)C)NC(=O)[C@H](CCc2ccc(C(F)(F)F)cc2)NC(=O)CN(C)C(=O)[C@H](Cc2ccc(Cl)cc2)N(C)C(=O)CN(C)C(=O)CN(C)C1=O [Compound 517] ([NMeA]I[Sar][Sar][NMePhe(4-Cl)][Sar][hPhe(4-CF3)]L[NMeS](X47)[NMeL]D-Pyrrolidide; lactam N-11)	28
CC[C@H](C)[C@@H]1NC(=O)[C@H](C)N(C)C(=O)C[C@@H](C)NC(=O)[C@H](CC(C)C)N(C)C(=O)C(C)(C)NC(=O)[C@@H]2C[C@@H]3CCCC[C@@H]3N2C(=O)[C@H](CCc2ccc(C(F)(F)F)cc2)NC(=O)CN(C)C(=O)[C@H](Cc2ccc(Cl)cc2)N(C)C(=O)CN(C)C(=O)CN(C)C1=O [Compound 521] (cyclo([Aib][NMeL][d(β3hA)][NMeA]I[Sar][Sar][NMePhe(4-Cl)][Sar][hPhe(4-CF3)][Oic]))	71
CC[C@H](C)[C@@H]1NC(=O)[C@H](CC(C)C)N(C)C(=O)C[C@@H](C(=O)N2CCCCC2)N(C)C(=O)[C@H](C(C)C)N(C)C(=O)C(C)(C)NC(=O)[C@@H]2CCCN2C(=O)[C@H](CCc2ccc(C(F)(F)F)c(F)c2)NC(=O)CN(C)C(=O)[C@H](CC2CCCCC2)N(C)C(=O)CN(C)C(=O)CN(C)C1=O [Compound 522] ([NMeL]I[Sar][Sar][NMeCha][Sar][hPhe(3-F,4-CF3)]P[Aib][NMeV][NMeD]-Piperidide; lactam N-11)	5.3
CCO[C@@H]1C[C@H]2C(=O)NC3(CCCC3)C(=O)N(C)[C@@H](C3CCCC3)C(=O)N(C)[C@H](C)CC(=O)N(C)[C@@H](CC(C)C)C(=O)N[C@@H]([C@@H](C)CC)C(=O)N[C@@H](C)C(=O)N3CC[C@H]3C(=O)N(CC)[C@@H](Cc3ccc(C)cc3)C(=O)N(C)CC(=O)N[C@@H](CCc3ccc(C(F)(F)F)c(Cl)c3)C(=O)N2C1 [Compound 525] (cyclo(A[Aze][NEtPhe(4-Me)][Sar][hPhe(3-Cl-4-CF3)][Hyp](Et)[Ac5c][NMeGly(cPent)][NMedβ3hAla][NMeL]I))	2.3
CC[C@H](C)[C@@H]1NC(=O)[C@H](CC(C)C)N(C)C(=O)C[C@@H](C(=O)N2CCCCC2)N(C)C(=O)[C@H](C2CCCCC2)N(C)C(=O)C2(CCCC2)NC(=O)[C@H](Cc2ccccc2)N(C)C(=O)[C@H](CCc2ccc(C(F)(F)F)c(Cl)c2)NC(=O)CN(C)C(=O)[C@H](CC2CCCCC2)N(C)C(=O)[C@@H]2CCN2C(=O)CN(C)C1=O [Compound 527] ([NMeL]I[Sar][Aze][NMeCha][Sar][hPhe(3-Cl-4-CF3)][NMeF][Ac5c][NMeChg][NMeD]-Piperidide; lactam N-11)	38
CC[C@H](C)[C@@H]1NC(=O)CCNC(=O)[C@H](Cc2ccc(F)cc2)N(C)C(=O)[C@H](C2CCCCC2)N(C)C(=O)C2(CCCC2)NC(=O)[C@@H]2CCCN2C(=O)[C@H](CCc2ccc(C(F)(F)F)c(Cl)c2)NC(=O)CN(C)C(=O)[C@H](CC2CCCCC2)N(C)C(=O)CN(C)C(=O)CN(C)C1=O [Compound 528] (cyclo([Ac5c][NMeChg][NMePhe(4-F)][βAla]I[Sar][Sar][NMeCha][Sar][hPhe(3-Cl-4-CF3)]P))	20
CC(C)C[C@H]1C(=O)N[C@@H](C2CC2)C(=O)N(C)CC(=O)N(C)CC(=O)N(C)[C@@H](CC2CCCCC2)C(=O)N(C)CC(=O)N[C@@H](CCc2ccc(C(F)(F)F)c(Cl)c2)C(=O)N2CCC[C@H]2C(=O)NC2(CCCC2)C(=O)N(C)[C@@H](C(C)C)C(=O)N(C)[C@H](C(=O)N2CCCCC2)CC(=O)N1C [Compound 533] ([NMeL][Gly(cPr)][Sar][Sar][NMeCha][Sar][hPhe(3-Cl-4-CF3)]P[Ac5c][NMeV][NMeD]-Piperidide; lactam N-11)	8.5
